According to article PMC5524191 (ACS chemical biology, 2016):

Target: 20S proteasome (Homo sapiens, UniProt P28072+P28074+Q99436)
Test: activation of Ac-Arg-Leu-Arg-AMC hydrolysis
Format: biochemical
Conditions: activator, trypsin-like activity

SMILES	fold activation
C=C(CC)C(=O)c1ccc(OCC(=O)NCCCCCCNC(=O)[C@H](CCCNC(=O)OC(C)(C)C)NC(=O)OC(C)(C)C)c(Cl)c1Cl [compound 4, EA-B2O]	Activation of the trypsin-like subunits was also observed with EA-B1G and EA-B2O
C=C(CC)C(=O)c1ccc(OCC(=O)NCCCCCCNC(=O)CNC(=O)OC(C)(C)C)c(Cl)c1Cl [compound 5, EA-B1G]	Activation of the trypsin-like subunits was also observed with EA-B1G and EA-B2O
